The nature of this test: Inhibition of growth of human PC3 cell overexpressing Bcl2.

As usually defined, the IC50 is the concentration needed to halve the response being measured. A high value points to weaker potency in that assay.

With `CC(C)c1cc(C(=O)Nc2ccccc2)c(O)c(O)c1O` [2,3,4-trihydroxy-5-isopropyl-N-phenyl-benzamide], the IC50 turned out to be 7 µM.

The compound `CC(C)c1ccccc1Cc1cc(C(=O)Nc2ccc(S(=O)(=O)c3ccccc3C(C)(C)C)cc2)c(O)c(O)c1O` [(N-[(2-tert-butylbenzenesulfonyl)phenyl]-2,3,4-trihydroxy-5-(2-isopropylbenzyl)benzamide] returned an IC50 of 0.2 µM.

`O=C(Nc1ccc(S(=O)(=O)c2ccccc2)cc1)c1cc(Cc2ccccc2)c(O)c(O)c1O` [N-(benzenesulfonyl-phenyl)-2,3,4-trihydroxy-5-benzyl-benzamide] registered an IC50 of 4 µM.

`COc1c(Cc2ccccc2C(C)C)cc(C(=O)Nc2ccc(S(=O)(=O)c3ccccc3C(C)(C)C)cc2)c(OC)c1OC` [N-[(2-Tert-butyl-benzenesulfonyl)-phenyl]-2,3,4-trimethoxyl-5-(2-isopropyl-benzyl)-benzamide] gave an IC50 greater than 100 µM.

Compound `O=C(Nc1ccccc1)c1cc(Cc2ccccc2)c(O)c(O)c1O` [N-phenyl-2,3,4-trihydroxy-5-benzyl-benzamide] displayed an IC50 of 5 µM.
